Measurements published in ChEMBL document CHEMBL1144111, “Strong antinociceptive effect of incarvillateine, a novel monoterpene alkaloid from Incarvillea sinensis” (1999).
Active and inactive are the calls of the source. The rule behind the calls is not given here.

Assays:
Mus musculus [1] = assay: Antinociceptive activity against formalin-induced pain in ip dosed ddY mouse assessed as reduction of paw licking response during neurogenic phase pretreated for 10 mins before formalin challenge; assay type: functional
Mus musculus [2] = assay: Antinociceptive activity against formalin-induced pain in ip dosed ddY mouse assessed as reduction of paw licking response during inflammatory phase pretreated for 10 mins before formalin challenge relative to morphine; assay type: functional
Mus musculus [3] = assay: Antinociceptive activity against formalin-induced pain in ip dosed ddY mouse assessed as reduction of paw licking response during neurogenic phase pretreated for 10 mins before formalin challenge relative to morphine; assay type: functional
Mus musculus [4] = assay: Antinociceptive activity against formalin-induced pain in ip dosed ddY mouse assessed as reduction of paw licking response during inflammatory phase pretreated for 10 mins before formalin challenge; assay type: functional
Mus musculus [5] = assay: Antinociceptive activity against formalin-induced pain in ddY mouse assessed as reduction of paw licking response during neurogenic phase at 20 mg/kg, ip pretreated for 10 mins before formalin challenge in presence of Naloxone; assay type: functional, organism-based; parameters: dose 20 mg/kg

SMILES | Activity (Mus musculus [1]) | ED50 (Mus musculus [1]) [µmol/kg] | Activity (Mus musculus [2]) | Activity (Mus musculus [3]) | Activity (Mus musculus [4]) | ED50 (Mus musculus [4]) [µmol/kg] | Activity (Mus musculus [5])
COc1cc([C@H]2[C@H](C(=O)O[C@@H]3C[C@@H]4[C@@H](CN(C)C[C@@H]4C)[C@@H]3C)[C@H](c3ccc(O)c(OC)c3)[C@H]2C(=O)O[C@@H]2C[C@@H]3[C@@H](CN(C)C[C@@H]3C)[C@@H]2C)ccc1O [INCARVILLATEINE] | Dose-dependent effect | 17.4 | 1.33 | 1.06 | Dose-dependent effect | 7.8 | 
CN1CC[C@]23c4c5ccc(O)c4O[C@H]2[C@@H](O)C=C[C@H]3[C@H]1C5 [MORPHINE] |  | 18.4 |  |  |  | 10.4 | inactive
